Measurements as given in publication PMC9907012, “Synthesis and characterisation of new antimalarial fluorinated triazolopyrazine compounds” (Beilstein Journal of Organic Chemistry, 2023).
Where two headings read alike, the source gives them in different places.

Assays:
[1] = system: P. falciparum Dd2 (chloroquine, pyrimethamine and mefloquine drug-resistant strain); test: In vitro anti-plasmodial image-based assay, P. falciparum Dd2; format: cell-based, Plasmodium falciparum; conditions: for IC50 / inhibition at 80 µM: Plasmodium falciparum, DD2; for IC50: 72 h incubation, read-out: Pf Dd2 IC50 ± SD; for SI for Dd2: SI = HEK293 IC50/parasite IC50; for inhibition at 80 µM: top dose of 80 µM, read-out: Pf Dd2 inhibition at the top dose (no IC50 given)
Description: (§1) S4: In vitro anti-plasmodial image-based assay
(§2) Plasmodium falciparum 3D7 and Dd2 parasites were cultured in RPMI1640 (Life Technologies, Camarillo, CA, USA) supplemented with 2.5 mg/mL Albumax II, 5% AB human serum, 25 mM HEPES, and 0.37mM hypoxanthine. Ring stage parasites were treated with compounds following two rounds of sorbitol synchronization, as previously described.
(§3) Following incubation of assay plates for 72 h at 37 °C, and 5% CO2 and 5% O2, parasites were stained with 2-(4-amidinophenyl)-1H-indole-6-carboxamidine (DAPI) and imaged using an Opera PhenixTM High Content Screening System (PerkinElmer, Waltham, MA, USA). Images were analysed using Harmony software (PerkinElmer, Waltham, MA, USA).
(§4) S5: In vitro cytotoxicity assay
(§5) Human embryonic kidney (HEK293) cells were maintained in DMEM (Life Technologies, Camarillo, CA, USA) containing 10% FBS (Hyclone™ ThermoFisher, Melbourne, Australia).
(§6) Cytotoxicity testing was undertaken, as previously described. In brief, 5 μL of test compound was added to the well of black/clear tissue culture-treated, 384-well plates containing 3000 adherent HEK 293 cells/well in 45 μL and incubated 72 h at 37 °C in 5% CO2.
(§7) After incubation, the supernatant was removed and replaced with 40 μL of 10% Alamar Blue per well. Plates were incubated for 5−6 h and measured for fluorescence at 530 -nm excitation and 595-nm emission. The % inhibition was calculated using 0.4% DMSO (no inhibition) and […]
(§8) IC 50 values were obtained by plotting % inhibition against log dose using GraphPad Prism v.6 (San Diego, CA, USA) nonlinear regression with a […]

[2] = system: P. falciparum 3D7 (chloroquine-sensitive strain); test: In vitro anti-plasmodial image-based assay, P. falciparum 3D7; format: cell-based, Plasmodium falciparum; conditions: for IC50 / inhibition at 80 µM: Plasmodium falciparum, 3D7; for IC50: 72 h incubation, read-out: Pf 3D7 IC50 ± SD; for SI for 3D7: SI = HEK293 IC50/parasite IC50; for inhibition at 80 µM: top dose of 80 µM, read-out: Pf 3D7 inhibition at the top dose (no IC50 given)
Description: as §1, §2, §3, §4, §5, §6, §7, §8

[3] = system: Plasmodium falciparum (Pf); conditions: previous study; read-out: IC50 (antimalarial activity); cited from earlier work
[4] = values marked d are estimated IC50 as a plateau of inhibition was not reached

Row | Structure (SMILES) | melting point | IC50 [1, 4] | IC50 [2, 4] | IC50 ([2]; controls) | IC50 ([1]; controls) | SI for Dd2 [1] | SI for 3D7 [2] | IC50 [3] | inhibition at 80 µM [1] | inhibition at 80 µM [2]
1 | N#Cc1ccc(-c2nnc3c(C(F)F)ncc(OCCc4ccccc4)n23)cc1 [Compound 18, 4-(8-(Difluoromethyl)-5-phenethoxy-[1,2,4]triazolo[4,3-a]pyrazin-3-yl)benzonitrile] | 109 to 111 °C | 58.6 ± 1.68 µM | 31 ± 2.37 µM | – | – | >1 | >3 | – | – | –
2 | Clc1ccc(-c2nnc3cncc(Cl)n23)cc1 [Compound 2] | – | 17.1 ± 0.43 µM | 18.9 ± 0.63 µM | – | – | >4 | >4 | 12.6 µM | – | –
3 | CC(F)(F)c1ncc(OCCc2ccccc2)n2c(-c3ccc(C#N)cc3)nnc12 [Compound 17, 4-(8-(1,1-Difluoroethyl)-5-phenethoxy-[1,2,4]triazolo[4,3-a]pyrazin-3-yl)benzonitrile] | – | – | – | – | – | – | – | – | < 33% | < 33%
4 | CCc1nc(N)nc(N)c1-c1ccc(Cl)cc1 [Pyrimethamine, reference compound] | – | – | – | 0.0152 ± 0.0012 µM | – | – | >657 | – | < 33% | –
5 | N#Cc1ccc(-c2nnc3c(C(F)(F)F)ncc(OCCc4ccccc4)n23)cc1 [Compound 16, 4-(5-Phenethoxy-8-(trifluoromethyl)-[1,2,4]triazolo[4,3-a]pyrazin-3-yl)benzonitrile] | – | 45.1 ± 6.58 µM | 22.5 ± 1.03 µM | – | – | >2 | >4 | – | – | –
6 | CCOc1cncc2nnc(-c3ccc(OC(F)F)cc3)n12 [Compound 7, 3-(4-(difluoromethoxy)phenyl)-5-ethoxy-[1,2,4]triazolo[4,3-a]pyrazine] | – | – | – | – | – | – | – | – | < 81% | < 81%
7 | N#Cc1ccc(-c2nnc3cncc(Cl)n23)cc1 [Compound 3] | – | 26.2 ± 1.01 µM | 35.5 ± 3.33 µM | – | – | >3 | >2 | – | – | –
8 | COc1ccc(C[C@H](N)C(=O)N[C@H]2[C@@H](O)[C@H](n3cnc4c(N(C)C)ncnc43)O[C@@H]2CO)cc1 [Puromycin, reference compound] | – | – | – | 0.079 ± 0.0057 µM | 0.102 ± 0.0095 µM | 98 | 127 | – | – | –
9 | FC(F)Oc1ccc(-c2nnc3cncc(Cl)n23)cc1 [Compound 1] | – | 34.5 ± 4.46 µM | 45.2 ± 5.42 µM | – | – | >2 | >2 | – | – | –
10 | FC(F)Oc1ccc(-c2nnc3c(C(F)(F)F)ncc(OCCc4ccccc4)n23)cc1 [Compound 10, 3-(4-(Difluoromethoxy)phenyl)-5-phenethoxy-8-(trifluoromethyl)-[1,2,4]triazolo[4,3-a]pyrazine] | – | 17.1 ± 0.71 µM | 11.3 ± 1.45 µM | – | – | >4 | >7 | – | – | –
11 | FC(F)Oc1ccc(-c2nnc3c(C(F)F)ncc(OCCc4ccccc4)n23)cc1 [Compound 12, 3-(4-(Difluoromethoxy)phenyl)-8-(difluoromethyl)-5-phenethoxy-[1,2,4]triazolo[4,3-a]pyrazine] | – | 19.6 ± 0.42 µM | 16.4 ± 1.13 µM | – | – | >4 | >5 | – | – | –
12 | FC(F)c1ncc(OCCc2ccccc2)n2c(-c3ccc(Cl)cc3)nnc12 [Compound 15, 3-(4-Chlorophenyl)-8-(difluoromethyl)-5-phenethoxy-[1,2,4]triazolo[4,3-a]pyrazine] | – | 14.3 ± 2.26 µM | 18.8 ± 0.21 µM | – | – | >6 | >4 | – | – | –

Further lines, with some results ahead:

Row | melting point | IC50 [1, 4] | IC50 [2, 4] | IC50 ([2]; controls) | IC50 ([1]; controls) | Structure (SMILES) | SI for Dd2 [1] | SI for 3D7 [2] | IC50 [3] | inhibition at 80 µM [1] | inhibition at 80 µM [2]
13 | 131 to 132 °C | 0.22 ± 0.01 µM | 0.2 ± 0.02 µM | – | – | Clc1ccc(-c2nnc3cncc(OCCc4ccccc4)n23)cc1 [Compound 5, 3-(4-chlorophenyl)-5-phenethoxy-[1,2,4]triazolo[4,3-a]pyrazine] | >364 | >396 | – | – | –
14 | 136 to 138 °C | 1.17 ± 0.09 µM | 1.15 ± 0.05 µM | – | – | N#Cc1ccc(-c2nnc3cncc(OCCc4ccccc4)n23)cc1 [Compound 6, 4-(5-phenethoxy-[1,2,4]triazolo[4,3-a]pyrazin-3-yl)benzonitrile] | >68 | >70 | – | – | –
15 | – | 10.2 ± 0.75 µM | 9.43 ± 0.44 µM | – | – | FC(F)(F)c1ncc(OCCc2ccccc2)n2c(-c3ccc(Cl)cc3)nnc12 [Compound 13, 3-(4-Chlorophenyl)-5-phenethoxy-8-(trifluoromethyl)-[1,2,4]triazolo[4,3-a]pyrazine] | >8 | >9 | – | – | –
16 | – | 0.26 ± 0.01 µM | 0.24 ± 0.01 µM | – | – | FC(F)Oc1ccc(-c2nnc3cncc(OCCc4ccccc4)n23)cc1 [Compound 4] | >312 | >329 | – | – | –
17 | – | 2.91 ± 0.18 µM | 2.72 ± 0.03 µM | – | – | CCOc1cncc2nnc(-c3ccc(Cl)cc3)n12 [Compound 8, 3-(4-chlorophenyl)-5-ethoxy-[1,2,4]triazolo[4,3-a]pyrazine] | >27 | >29 | – | – | –
